Results reported in patent US10508120B2, “TYK2 inhibitors and uses thereof” (Nimbus Lakshmi, Inc., priority 2017, dated 2019).
pKd: −log10 of the molar value.

Target: human TYK2 (JH2domain-pseudokinase) (Homo sapiens (Human), UniProt P29597)
Assay: TYK2 JH2 Domain Binding Assay (KINOMEscan)
Method: Binding constants for compounds of the present invention against the JH2 domain were determined by the following protocol for a KINOMEscan® assay (DiscoveRx). A fusion protein of a partial length construct of human TYK2 (JH2domain-pseudokinase) (amino acids G556 to D888 based on reference sequence NP_003322.3) and the DNA binding domain of NFkB was expressed in transiently transfected HEK293 cells. From these HEK 293 cells, extracts were prepared in M-PER extraction buffer (Pierce) in the presence of Protease Inhibitor Cocktail Complete (Roche) and Phosphatase Inhibitor Cocktail Set II (Merck) per manufacturers' instructions. The TYK2 (JH2domain-pseudokinase) fusion protein was labeled with a chimeric double-stranded DNA tag containing the NFkB binding site (5′-[…]-3′) fused to an amplicon for qPCR readout, which was added directly to the expression extract (the final concentration of DNA-tag in the binding reaction is 0.1 nM).
The liganded beads were blocked with excess biotin and washed with blocking buffer (SeaBlock (Pierce), 1% BSA, 0.05% Tween 20, 1 mM DTT) to remove unbound ligand and to reduce nonspecific binding.
Extracts were used directly in binding assays without any enzyme purification steps at a ≥10,000-fold overall stock dilution (final DNA-tagged enzyme concentration <0.1 nM). Extracts were loaded with DNA-tag and diluted into the binding reaction in a two step process. First extracts were diluted 1:100 in 1× binding buffer (PBS/0.05% Tween 20/10 mM DTT/0.1% BSA/2 μg/ml sonicated salmon sperm DNA) containing 10 nM DNA-tag. This dilution was allowed to equilibrate at room temperature for 15 minutes and then subsequently diluted 1:100 in 1× binding buffer. […] Kds were determined using an 11-point 3-fold compound dilution series with three DMSO control points. […] The compounds were then diluted directly into the assays such that the final concentration of DMSO was 0.9%. All reactions performed in polypropylene 384-well plates. Each was a final volume of 0.02 mL. Assays were incubated with shaking for 1 hour at room temperature. Then the beads were pelleted and washed with wash buffer (1×PBS, 0.05% Tween 20) to remove displaced kinase and test compound. […] The qPCR protocol consisted of a 10 minute hot start at 95° C., followed by 35 cycles of 95° C. for 15 seconds, 60° C. for 1 minute.
Kds were determined using an 11-point 3-fold compound dilution series with three DMSO control points. […] The compounds were then diluted directly into the assays such that the final concentration of DMSO was 0.9%. The Kds were determined using a compound top concentration of 30,000 nM. Kd measurements were performed in duplicate.
Binding constants (Kds) were calculated with a standard dose-response curve using the Hill equation: […]
The Hill Slope was set to −1.

Chain of human TYK2 (JH2domain-pseudokinase) (P29597 556-888): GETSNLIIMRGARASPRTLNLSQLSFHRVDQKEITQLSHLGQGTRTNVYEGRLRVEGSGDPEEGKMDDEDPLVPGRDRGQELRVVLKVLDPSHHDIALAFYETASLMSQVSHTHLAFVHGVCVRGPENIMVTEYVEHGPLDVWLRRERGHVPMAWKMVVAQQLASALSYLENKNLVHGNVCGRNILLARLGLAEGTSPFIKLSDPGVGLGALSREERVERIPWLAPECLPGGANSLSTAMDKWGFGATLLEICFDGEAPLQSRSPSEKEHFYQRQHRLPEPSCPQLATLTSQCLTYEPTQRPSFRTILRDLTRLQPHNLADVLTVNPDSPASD

Row | Structure (SMILES) | pKd
1 | CNc1cc(Nc2cccn(C3CC(F)(F)C3)c2=O)nc2c(C(=O)N[C@@H]3CC[C@@H](OC)C3)cnn12 [I-1210] | 9.00 to 9.70
2 | CNc1cc(Nc2cccn(C3CC(F)(F)C3)c2=O)nc2c(C(=O)N[C@@H]3CC[C@H](O)C3)cnn12 [I-1212] | < 8.00
3 | CNc1cc(Nc2cccn([C@H]3CCCN(CCF)C3)c2=O)nc2c(C(=O)N[C@@H]3CC[C@H]3OC)cnn12 [I-1216] | 9.00 to 9.70
4 | CNc1cc(Nc2cccn(-c3cccnc3)c2=O)nc2c(C(=O)N[C@@H]3CCC[C@@H](OC)C3)cnn12 [I-1218] | 8.00 to 9.00
5 | CNc1cc(-c2cn(C3CCOCC3)c3ncccc23)nc2c(C(=O)N[C@@H]3CCC[C@@]3(C)O)cnn12 [I-1221] | 9.00 to 9.70
6 | CNc1cc(-c2cn([C@H]3CCC[C@@H]3OC)c3ncccc23)nc2c(C(=O)N[C@@H]3CC[C@@H]3O)cnn12 [I-1224, N-((1R,2S)-2-hydroxycyclobutyl)-5-(1-((1S,2S)-2-methoxycyclopentyl)-1H-pyrrolo[2,3-b]pyridin-3-yl)-7-(methylamino)pyrazolo[1,5-a]pyrimidine-3-carboxamide] | 8.00 to 9.00
7 | CNc1cc(Nc2cccn(C3CCOCC3)c2=O)nc2c(C(=O)N[C@@H]3CCC[C@@H](O)C3)cnn12 [I-1226] | 8.00 to 9.00
8 | CNc1cc(Nc2cccn([C@H]3C[C@@H]3OC)c2=O)nc2c(C(=O)NC3CC3)cnn12 [I-1228] | 8.00 to 9.00
9 | CNc1cc(Nc2cccn([C@@H]3C[C@H]3OC)c2=O)nc2c(C(=O)N[C@H]3CC[C@@H]3OC)cnn12 [I-1233] | 8.00 to 9.00
10 | CNc1cc(Nc2cccn([C@H]3C[C@@H]3OC)c2=O)nc2c(C(=O)N[C@H]3CC[C@@H]3OC)cnn12 [I-1234] | 9.00 to 9.70
11 | CNc1cc(Nc2cccn([C@H]3CCCOC3)c2=O)nc2c(C(=O)N[C@@H]3CCC[C@@](C)(OC)C3)cnn12 [I-1237] | < 8.00
12 | CNc1cc(Nc2cccn(C(C)C)c2=O)nc2c(C(=O)N[C@@H]3CCC[C@@](C)(O)C3)cnn12 [I-1243] | 8.00 to 9.00
13 | CNc1cc(Nc2cccn([C@H]3CCC[C@@H](C#N)C3)c2=O)nc2c(C(=O)NC3CC3)cnn12 [I-1245] | 9.00 to 9.70
14 | CNc1cc(-c2cn([C@@H]3CCC[C@H]3OC)c3ncccc23)nc2c(C(=O)N[C@H]3CC[C@H]3O)cnn12 [I-1246, N-((1S,2R)-2-hydroxycyclobutyl)-5-(1-((1R,2R)-2-methoxycyclopentyl)-1H-pyrrolo[2,3-b]pyridin-3-yl)-7-(methylamino)pyrazolo[1,5-a]pyrimidine-3-carboxamide] | 9.00 to 9.70
15 | CNc1cc(-c2cn([C@@H]3CCCOC3)c3ncccc23)nc2c(C(=O)N[C@H]3COC[C@H]3O)cnn12 [I-1250, N-(4-hydroxytetrahydrofuran-3-yl)-7-(methylamino)-5-(1-((R)-tetrahydro-2H-pyran-3-yl)-1H-pyrrol[2,3-b]pyridin-3-yl)pyrazol[1,5-a]pyrimidine-3-carboxamide] | 9.00 to 9.70
16 | CNc1cc(Nc2cccn([C@@H]3CC[C@H]3O)c2=O)nc2c(C(=O)N[C@@H]3CCC[C@@H](OC)C3)cnn12 [I-1253] | < 8.00
17 | CNc1cc(-c2cn([C@@H]3CCCOC3)c3ncccc23)nc2c(C(N)=O)cnn12 [I-1255] | 9.00 to 9.70
18 | CNc1cc(-c2cn([C@H]3CCCOC3)c3ncccc23)nc2c(C(=O)N[C@H]3CC[C@H]3O)cnn12 [I-1258] | < 8.00
19 | CNc1cc(Nc2cccn(-c3ocnc3C)c2=O)nc2c(C(=O)N[C@H]3CC[C@H]3O)cnn12 [I-1259] | < 8.00

Next, values leading:

Row | pKd | Structure (SMILES)
20 | > 9.70 | CNc1cc(Nc2cccn(C3CC(F)(F)C3)c2=O)nc2c(C(=O)N[C@@H]3CC[C@@H](O)C3)cnn12 [I-1211]
21 | > 9.70 | CNc1cc(Nc2cccn([C@H]3CCCN(CCF)C3)c2=O)nc2c(C(=O)N[C@H]3CC[C@@H]3OC)cnn12 [I-1215]
22 | > 9.70 | CNc1cc(Nc2cccn(-c3cccnc3)c2=O)nc2c(C(=O)N[C@H]3CCC[C@H](OC)C3)cnn12 [I-1217]
23 | > 9.70 | CNc1cc(Nc2cccn([C@@H]3CCC[C@H](C#N)C3)c2=O)nc2c(C(=O)N[C@@H]3C[C@@H]3F)cnn12 [I-1219]
24 | 9.00 to 9.70 | CNc1cc(Nc2cccn([C@H]3CCC[C@@H](C#N)C3)c2=O)nc2c(C(=O)N[C@@H]3C[C@@H]3F)cnn12 [I-1220]
25 | > 9.70 | CNc1cc(-c2cn(C3CCOCC3)c3ncccc23)nc2c(C(=O)N[C@H]3CCC[C@]3(C)O)cnn12 [I-1222]
26 | 9.00 to 9.70 | CNc1cc(-c2cn([C@H]3CCC[C@@H]3OC)c3ncccc23)nc2c(C(=O)N[C@H]3CC[C@H]3O)cnn12 [I-1223, N-((1S,2R)-2-hydroxycyclobutyl)-5-(1-((1S,2S)-2-methoxycyclopentyl)-1H-pyrrolo[2,3-b]pyridin-3-yl)-7-(methylamino)pyrazolo[1,5-a]pyrimidine-3-carboxamide]
27 | > 9.70 | CNc1cc(Nc2cccn(C3CCOCC3)c2=O)nc2c(C(=O)N[C@H]3CCC[C@H](O)C3)cnn12 [I-1225]
28 | > 9.70 | CNc1cc(Nc2cccn([C@@H]3C[C@H]3OC)c2=O)nc2c(C(=O)NC3CC3)cnn12 [I-1227]
29 | > 9.70 | CNc1cc(-c2cn(CCCO)c3ncc(F)cc23)nc2c(C(=O)N[C@@H]3CC[C@H]3OC)cnn12 [I-1229]
30 | 9.00 to 9.70 | CNc1cc(-c2cn(CCCO)c3ncc(F)cc23)nc2c(C(=O)N[C@H]3CC[C@@H]3OC)cnn12 [I-1230]
31 | > 9.70 | CCO[C@H]1CC[C@@H]1NC(=O)c1cnn2c(NC)cc(Nc3cccn(-c4ccccn4)c3=O)nc12 [I-1231]
32 | 9.00 to 9.70 | CCO[C@@H]1CC[C@H]1NC(=O)c1cnn2c(NC)cc(Nc3cccn(-c4ccccn4)c3=O)nc12 [I-1232]
33 | > 9.70 | CNc1cc(Nc2cccn(C(C)C)c2=O)nc2c(C(=O)N[C@@H]3CCC[C@@](C)(OC)C3)cnn12 [I-1235]
34 | > 9.70 | CNc1cc(Nc2cccn([C@@H]3CCCOC3)c2=O)nc2c(C(=O)N[C@@H]3CCC[C@@](C)(OC)C3)cnn12 [I-1236]
35 | > 9.70 | CNc1cc(Nc2cccn3ccnc23)nc2c(C(=O)N[C@@H]3CCC[C@@]3(C)O)cnn12 [I-1238]
36 | > 9.70 | CNc1cc(Nc2cccn3ccnc23)nc2c(C(=O)N[C@H]3CCC[C@]3(C)O)cnn12 [I-1239]
37 | > 9.70 | CNc1cc(Nc2cccn(C(C)C)c2=O)nc2c(C(=O)N[C@@H]3CCC[C@@]3(C)O)cnn12 [I-1240]
38 | > 9.70 | CNc1cc(Nc2cccn(C(C)C)c2=O)nc2c(C(=O)N[C@H]3CCC[C@]3(C)O)cnn12 [I-1241]
39 | > 9.70 | CNc1cc(Nc2cccn(C(C)C)c2=O)nc2c(C(=O)N[C@H]3CCC[C@](C)(O)C3)cnn12 [I-1242]
40 | > 9.70 | CNc1cc(Nc2cccn([C@@H]3CCC[C@H](C#N)C3)c2=O)nc2c(C(=O)NC3CC3)cnn12 [I-1244]
41 | > 9.70 | CNc1cc(-c2cn([C@@H]3CCC[C@H]3OC)c3ncccc23)nc2c(C(=O)N[C@@H]3CC[C@@H]3O)cnn12 [I-1247, N-((1R,2S)-2-hydroxycyclobutyl)-5-(1-((1R,2R)-2-methoxycyclopentyl)-1H-pyrrolo[2,3-b]pyridin-3-yl)-7-(methylamino)pyrazolo[1,5-a]pyrimidine-3-carboxamide]
42 | > 9.70 | CNc1cc(Nc2cccn([C@H]3CCCOC3)c2=O)nc2c(C(=O)N[C@@H]3C[C@H]3OC)cnn12 [I-1248]
43 | > 9.70 | CNc1cc(Nc2cccn([C@H]3CCCOC3)c2=O)nc2c(C(=O)N[C@H]3C[C@@H]3OC)cnn12 [I-1249]
44 | > 9.70 | CNc1cc(Nc2cccn([C@H]3CC[C@@H]3O)c2=O)nc2c(C(=O)N[C@@H]3CCC[C@@H](OC)C3)cnn12 [I-1252]
45 | > 9.70 | CNc1cc(-c2cn([C@H]3CCCOC3)c3ncccc23)nc2c(C(N)=O)cnn12 [I-1256]
